Series [1] can be described thus: Stability in cell culture. To be noted: HL-60 and RPMI-8226 cultures, 500 ng/ml. In kind it is in vitro ADME. The procedure: HL60 and RPMI-8226 cells were maintained in cell culture medium in the presence or absence of 20% fetal bovine serum. 2-OMeA1 (500 ng/ml) was added to a culture containing 200,000 cells/ml, and to another flask containing only the medium. From the flasks, portions were removed at various times and, as appropriate, centrifuged to collect cells. Samples of cell-free medium, to which NaF/EDTA was added, were extracted. Collected cells were suspended in phosphate-buffered saline (PBS) containing NaF/EDTA, subjected to sonication, and then extracted and analyzed.

The test system of series [2] is RPMI-8226 cells. To be noted: suboptimal combinations with etoposide or melphalan. On the procedure:
Current anti-myeloma regimens incorporate multiple drugs with different mechanisms of action. RPMI-8226 cells were treated with 2-OMeA1 in combination with standard chemotherapeutic agents used in myeloma treatment: etoposide, melphalan, or daunorubicin (Sonneveld and Segeren, Eur. J. Cancer 39:9-18, 2003).

For series [3], the system named is cellular O2 consumption. Put plainly: Cellular O2 consumption. In kind it is cell-based. To be noted: compared to antimycin A3.
A short description of series [4]: S9 metabolism. In kind it is in vitro ADME. To be noted: male, hepatic S9 fraction, pH 7.4; for half-life at 500 ng/ml: 37° C. The source says:
All chemicals and solvents used for sample preparation and HPLC analysis were analytical grade. Acetonitrile, methanol, and phosphoric acid were purchased from Fisher Scientific (Atlanta, Ga.). Hepatic S9 fractions from male CD2F1 mice, male Sprague Dawley rats, male dogs, and male humans were purchased from In Vitro Technologies (Boston, Mass.). The National Cancer Institute provided samples of the test compounds and male CD2F1 mice. Fischer 344 rats with implanted jugular cannulas were obtained from Charles River Laboratories (Cambridge, Mass.). All animal use and care procedures were approved by the Institutional Committee on Animal Use and Care at the University of Alabama at Birmingham and conformed to the guidelines found in Guide for the Care and Use of Laboratory Animals, National Academy Press, 1996.
To evaluate metabolism of the test compounds by S9 fractions from various species, reaction systems maintained at 37° C. contained 2-OMe-A3 (500 ng/ml) and S9 (1 mg protein/ml) in 100 mM Tris buffer (pH 7.4). At selected times, triplicate portions of the mixtures were removed and processed for analysis, as described above.

The test system of series [5] is mitochondria from TABX2S cells. Put plainly: Swelling of isolated mitochondria (absorbance at 540 nm). Details: species or system murine. To be noted: 2 μg/ml. The source says:
Mitochondrial PT is caused by opening of a large conductance channel in the inner mitochondrial membrane. Opening of a large conductance channel allows free distribution of solutes of less than 1,500 Da and results in dissipation of the proton gradient and osmotic swelling of mitochondria due to the higher solute concentration in the matrix. In isolated mitochondria, the colloid osmotic swelling associated with PT pore opening can be followed by measuring the optical density change at 540 nm (Kantrow et al., Biochem. Biophy. Res. Comm. 232:669-671, 1997).
Briefly, mitochondria were isolated from TABX2S cultured cells by a modification of the procedure of Maltese et al. (J. Biol. Chem. 260:11524-11529, 1985). Typically, 0.5 to 1×10^8 cells were harvested and washed once with homogenization buffer (250 mM sucrose, 10 mM Tris-HCl, 1 mM EDTA and 1 mg/ml BSA, (pH 7.4)). The cell suspension was exposed to nitrogen at 250 psi for 30 minutes in a “cell disruption bomb” (Parr, Moline, Ill.) or homogenized in a Dounce homogenizer with a loose-fitting pestle until >90% of cells were broken. The homogenate was centrifuged at 800×g for 10 minutes. The supernatant was removed and centrifuged at 10,000×g for 10 minutes at 4° C. The pellet was resuspended and again centrifuged at 10,000×g for 10 minutes. […]

Series [6] relates to mitochondria from TABX2S cells. As to the kind of experiment: Rhodamine 123 retention assay. To be noted: five minutes after adding. On the set-up: species or system murine. The procedure: Rh-123 is a cationic lipid-soluble fluorescent dye that accumulates in mitochondria in proportion to the mitochondrial membrane potential. Mitochondria were isolated from TABX2S cells (over-expressing Bcl-xL) and from control cells, prepared as described in Example 2. The isolated mitochondria were loaded with Rh-123 by incubating with 10 μM Rh-123 for 30 minutes, washed and resuspended in buffer. […] Less than 40% of Rh-123 was retained in antimycin A-treated TABX2S mitochondria, compared with greater than 80% retained in control mitochondria.

In series [7] the test system is TAMH cells that over-express Bcl-2. Put plainly: Sensitivity of Bcl-2 over-expressing cells to antimycin A. In kind it is cell-based, murine. To be noted: vs control cells.
The subject of series [8] is NCI-H929. Put plainly: Propidium iodide exclusion / flow cytometry cytotoxicity. Format: cell-based, human. To be noted: 5 to about 20 μg/ml. The procedure:
(§1) Cell survival was assayed by exclusion of propidium iodide (PI; 10 μg/ml) by unfixed cells. Annexin V-FITC (Pharmingen) or 3, 3′-dihexyloxacarbocyanine iodide (DiOC6(3); Molecular Probes) staining was analyzed together with PI to discriminate early apoptotic cells. Apoptotic cells were also measured as sub-G1 events among ethanol-fixed cells stained with 10 μg/ml PI. All cell samples were analyzed using a benchtop FACSCalibur™ (Becton Dickinson, San Jose, Calif.). Flow data were analyzed using MultiCycle AV software (Phoenix Flow Systems). For intracellular pH measurements, cell pellets were washed once and resuspended in 2 ml of HEPES-buffered medium (no phenol red and no serum). Carboxy-SNARF-1-AM (Molecular Probes, 1 mM stock in DMSO, stored at −20° C.) was added to a final concentration of 10 μM, and the cells were incubated for 30 min at 37° C. Following incubation with SNARF, cells were sedimented and the pellets were held on ice. Immediately before analysis, pellets were resuspended in […] (HBSS; experimental buffer) or high-[K+] buffer containing nigericin (calibration samples).

Series [9] deals with U266. The series is described as above. In kind it is cell-based, human. To be noted: 5 to about 20 μg/ml. The procedure:
as §1

Consider `CCCCCC[C@H]1C(=O)O[C@H](C)[C@H](NC(=O)c2cccc(NC=O)c2OC)C(=O)O[C@@H](C)[C@@H]1OC(=O)CC(C)C` [2-OMeA1, 2-methoxy antimycin A1], for which the “stability in the medium from cell cultures” value in series [1] is given as “notably less stable in the absence of fetal bovine serum”. Also, in [2], the killing in combination entry was “Supra-additive killing”.
In the case of `CCCC[C@H]1C(=O)OC(C)[C@H](NC(=O)c2cccc(NC=O)c2OC)C(=O)O[C@@H](C)C1OC(=O)CC(C)C` (some centres unmarked) [2-OMeA3, Antimycin A3 methyl ether], the “effect on cellular O2 consumption” value in series [3] is recorded as “negligible effect”. In addition, the half-life at 2000 ng/ml is > 5 min in series [4] (CD2F1, mouse); > 5 min in series [4] (Sprague Dawley, rat); > 5 min in [4] (dog). The half-life at 500 ng/ml was > 5 min in series [4] (CD2F1, mouse); > 5 min in [4] (Sprague Dawley, rat); > 5 min in series [4] (dog).
With antimycin A, the mitochondrial swelling entry in [5] is “caused mitochondrial swelling”. Further, the Rh-123 retained result in series [6] is “Less than 40%”. Also, the “sensitivity to antimycin A” value in series [7] is given as “more sensitive”. Further, the “sensitivity (PI exclusion)” value in series [8] and in [9] was “sensitive” throughout.

As a reminder, the half-life is how long it takes for the measured level to halve. A higher half-life goes with slow loss.

(Values after patent US20050239873A1 (priority 1999, published 2005).)
